This is an account of results in ChEMBL document CHEMBL1157791, “Discovery of GSK1070916, a potent and selective inhibitor of Aurora B/C kinase” (J Med Chem, 2010).

One assay deals with T1, Aurora kinase A (Homo sapiens, UniProt O14965).
T1 sequence (O14965 whole entry): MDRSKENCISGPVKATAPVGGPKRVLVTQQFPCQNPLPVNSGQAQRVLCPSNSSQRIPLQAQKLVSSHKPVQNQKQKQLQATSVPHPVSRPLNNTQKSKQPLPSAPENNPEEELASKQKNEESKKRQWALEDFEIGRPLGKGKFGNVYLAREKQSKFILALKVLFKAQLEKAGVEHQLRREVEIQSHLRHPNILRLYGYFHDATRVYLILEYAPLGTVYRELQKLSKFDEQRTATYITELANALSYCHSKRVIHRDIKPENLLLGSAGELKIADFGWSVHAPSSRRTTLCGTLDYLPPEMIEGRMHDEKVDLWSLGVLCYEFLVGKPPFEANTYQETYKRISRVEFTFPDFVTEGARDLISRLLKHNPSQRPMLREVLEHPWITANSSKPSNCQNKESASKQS
Briefly: Inhibition of human Aurora A.

The test system of a further assay is A549. Briefly: Antiproliferative activity against human A549 cells after 6 to 7 days by celltiter-glo luminescence assay in absence of 70% human serum albumin. The format is functional, cell-based. A general note: ATP-based viability assays read luminescence as a measure of living cells.
The next assay has as its target Aurora kinase B (Homo sapiens, UniProt Q96GD4). Briefly: Inhibition of human Aurora B by in vitro inhibition assay.

Chain of Aurora kinase B (Q96GD4 whole entry): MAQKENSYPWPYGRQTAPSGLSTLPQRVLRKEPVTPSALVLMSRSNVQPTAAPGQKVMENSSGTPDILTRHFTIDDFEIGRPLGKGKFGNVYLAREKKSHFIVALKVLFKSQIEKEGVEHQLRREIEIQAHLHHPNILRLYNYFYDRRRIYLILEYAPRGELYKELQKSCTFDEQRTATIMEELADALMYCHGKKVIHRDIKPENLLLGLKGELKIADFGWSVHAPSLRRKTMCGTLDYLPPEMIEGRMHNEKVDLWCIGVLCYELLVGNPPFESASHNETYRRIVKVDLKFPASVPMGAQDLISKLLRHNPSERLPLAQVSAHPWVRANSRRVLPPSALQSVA

Turning to `O=C(Nc1ccccc1)Nc1ccc(-c2n[nH]cc2-c2ccnc3[nH]ccc23)cc1`, the IC50 against Aurora kinase A came out at 3850 nM; against Aurora kinase B it was 32 nM. In the assay with A549, the EC50 came out at 12800 nM.
For `CCNC(=O)Cn1cc(-c2ccnc3[nH]ccc23)c(-c2ccc(NC(=O)Nc3ccccc3)cc2)n1` the same measures were 3390 nM, 64 nM and > 20000 nM.
For `O=C(Nc1ccccc1)Nc1ccc(-c2nn(CCO)cc2-c2ccnc3[nH]ccc23)cc1`, the IC50 against Aurora kinase A worked out at 792 nM; on Aurora kinase B, 3 nM. In the assay on A549, it took 2630 nM to reach a half-maximal effect (EC50).
As to `CC(C)(C)n1ncc(-c2ccnc3[nH]ccc23)c1-c1ccc(NC(=O)Nc2ccccc2)cc1`, the IC50 on Aurora kinase A is 5770 nM; at Aurora kinase B, 40 nM. This compound also came in with an EC50 in the assay with A549 of 890 nM.
As to `CCn1ncc(-c2ccnc3[nH]ccc23)c1-c1ccc(NC(=O)Nc2ccccc2)cc1`, the IC50 at Aurora kinase A is 5600 nM; against Aurora kinase B it was 25 nM. Moreover, the EC50 with A549 stood at 1590 nM.
In the same order, the values of `CCNC(=O)Nc1ccc(-c2nn(CC)cc2-c2ccnc3[nH]c(-c4ccc(CN5CCOCC5)cc4)cc23)cc1` are 23 nM, 4.7 nM and 12 nM.
In the same order, the values of `CCn1cc(-c2ccnc3[nH]c(-c4cccc(CN5CCCC5)c4)cc23)c(-c2ccc(NC(=O)N(C)C)cc2)n1` are 366 nM, 2.1 nM and 7 nM.
In the same order, the values of `CCn1cc(-c2ccnc3[nH]c(-c4cccc(CN5CCOCC5)c4)cc23)c(-c2ccc(NC(=O)N(C)C)cc2)n1` are 495 nM, 4.7 nM and 18 nM.
On to `O=C(Nc1ccccc1)Nc1ccc(-c2nn(CC3CCCO3)cc2-c2ccnc3[nH]ccc23)cc1` (configuration not stated), for which the IC50 against Aurora kinase A came to 6190 nM; against Aurora kinase B, 97 nM.
As for `CCn1cc(-c2ccnc3[nH]ccc23)c(-c2ccc(NC(=O)N(C)C)cc2)n1`, the IC50 against Aurora kinase A was > 10000 nM.
On to `NC(=O)Cn1cc(-c2ccnc3[nH]ccc23)c(-c2ccc(NC(=O)Nc3ccccc3)cc2)n1`, for which the IC50 at Aurora kinase A is 5680 nM; against Aurora kinase B, 64 nM. The EC50 with A549 was > 20000 nM.
For `CC(C)(C)n1cc(-c2ccnc3[nH]ccc23)c(-c2ccc(NC(=O)Nc3ccccc3)cc2)n1` the same measures were 8160 nM, 50 nM and 476 nM.
In the same order, the values of `O=C(Nc1ccccc1)Nc1ccc(-c2nn(CC(O)CO)cc2-c2ccnc3[nH]ccc23)cc1` (configuration not stated) are 377 nM, 1 nM and 9610 nM.
Turning to `CCn1cc(-c2ccnc3[nH]c(-c4ccc(CN5CCOCC5)cc4)cc23)c(-c2ccc(NC(=O)N(C)C)cc2)n1`, the IC50 turned out to be 250 nM on Aurora kinase A and 8.1 nM against Aurora kinase B. In the assay with A549, the response was half-maximal at 9 nM (EC50).
In the same order, the values of `CCNC(=O)Nc1ccc(-c2nn(CC)cc2-c2ccnc3[nH]c(-c4ccc(CN(C)C)cc4)cc23)cc1` are 39 nM, 1.7 nM and 6 nM.
In the same order, the values of `O=C(Nc1ccccc1)Nc1ccc(-c2nn(CCCO)cc2-c2ccnc3[nH]ccc23)cc1` are 969 nM, 2 nM and 779 nM.
In the same order, the values of `CCNC(=O)Nc1ccc(-c2nn(CC)cc2-c2ccnc3[nH]c(-c4cccc(CN5CCOCC5)c4)cc23)cc1` are 70 nM, 5 nM and 26 nM.
For `CCn1cc(-c2ccnc3[nH]c(-c4ccc(CN5CCCC5)cc4)cc23)c(-c2ccc(NC(=O)N(C)C)cc2)n1`, the figures for the IC50 against Aurora kinase A and against Aurora kinase B were 414 nM and 4.5 nM, respectively. In addition, in the assay on A549, the EC50 is 6 nM.
For the compound `O=C(Nc1ccccc1)Nc1ccc(-c2nn(CC(F)(F)F)cc2-c2ccnc3[nH]ccc23)cc1`, the values for the IC50 at Aurora kinase A and against Aurora kinase B were 2150 nM and 16 nM, respectively. The compound also showed an EC50 in the assay with A549 of 326 nM.
Regarding `CCNC(=O)Nc1ccc(-c2nn(CC)cc2-c2ccnc3[nH]c(-c4ccc(CN5CCCC5)cc4)cc23)cc1`, the IC50 on Aurora kinase A was determined as 42 nM; on Aurora kinase B, 1.5 nM. The compound also returned an EC50 with A549 of 8 nM.

As usually defined, the IC50 is the point on the concentration scale where inhibition reaches its midpoint. Lower therefore signals higher potency. In general, EC50 refers to the concentration that produces a half-maximal response.
